In the supplement of paper PMC10307832:

Experiments:
Assay in all cases: relative viability (nuclei count vs DMSO), 5 days (fraction); higher = more cells survive
[1] = compound: CC(C)C[C@@H](C(=O)N[C@H](C(=O)OC1CCCC1)c1ccccc1)[C@H](O)C(=O)NO [Tosedostat] + Nc1nc2[nH]cc(CCc3ccc(C(=O)N[C@@H](CCC(=O)O)C(=O)O)cc3)c2c(=O)[nH]1 [Pemetrexed] (partner 0.2 µM)
How it was run: (§1)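 The day after seeding in 1536-well plates, lung cancer cell lines were treated by pin tool with a single drug, or with a fixed anchor-drug dose together with five library-drug doses (not always all listed) in √10 steps. After 5 days, a combined fix-and-stain solution (final 0.05% Triton X-100, 1% formaldehyde, 1 ug/ml Hoechst) was added. Nuclei counted on 4× images gave relative viability as treated counts over vehicle counts, reported as the median of duplicate plates.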

[2] = compound: CC1=NN=C(O1)C2=NN=C(C=C2)N3CCC(CC3)OC4=C(C=CC(=C4)F)Cl + Nc1ncn([C@H]2C[C@H](O)[C@@H](CO)O2)c(=O)n1 [Decitabine] (partner 2 µM)
How it was run: as §1

[3] = compound: CC1=NN=C(O1)C2=NN=C(C=C2)N3CCC(CC3)OC4=C(C=CC(=C4)F)Cl + CS(=O)(=O)CCNCc1ccc(-c2ccc3ncnc(Nc4ccc(OCc5cccc(F)c5)c(Cl)c4)c3c2)o1 [Lapatinib] (partner 2 µM)
How it was run: as §1

[4] = compound: CC1=NN=C(O1)C2=NN=C(C=C2)N3CCC(CC3)OC4=C(C=CC(=C4)F)Cl + CC(=O)Nc1cccc(-n2c(=O)n(C3CC3)c(=O)c3c(Nc4ccc(I)cc4F)n(C)c(=O)c(C)c32)c1 [Trametinib] (partner 0.02 µM)
How it was run: as §1

Question: Which results are given for UMC-11?
Answer: relative viability ([1]; first compound 0.02 µM): 0.86; relative viability ([1]; first compound 0.06325 µM): 0.723; relative viability ([1]; first compound 0.2 µM): 0.85; relative viability ([1]; first compound 0.6325 µM): 0.84; relative viability ([1]; first compound 2 µM): 0.94; relative viability ([2]; first compound 0.253 µM): 0.517; relative viability ([2]; first compound 0.8 µM): 0.517; relative viability ([2]; first compound 2.53 µM): 0.507; relative viability ([2]; first compound 8 µM): 0.466; relative viability ([3]; first compound 0.253 µM): 0.641; relative viability ([3]; first compound 0.8 µM): 0.645; relative viability ([3]; first compound 2.53 µM): 0.777; relative viability ([3]; first compound 8 µM): 0.595; relative viability ([4]; first compound 0.253 µM): 0.457; relative viability ([4]; first compound 0.8 µM): 0.531; relative viability ([4]; first compound 2.53 µM): 0.33; relative viability ([4]; first compound 8 µM): 0.43
